The subject of assay [1] is Paracoccus carotinifaciens strain E-396 (FERM BP-4283). The assay can be described thus: Amino acid supplementation (20 amino acids), test tube culture, carotenoid by HPLC and growth by OD610. It counts as cell-based. The conditions noted are these: amino acid at 1.0 g/L. How it is done: (§1) In the examples, carotenoids were quantified by high performance liquid chromatography (HPLC) as follows.
(§2) Two columns of Wakosil-II 5 SIL-100 (φ4.6×250 mm) (Wako Pure Chemical Industries, Ltd., Japan) were connected to each other for use as a column. Elution was performed by flowing an n-hexane-tetrahydrofuran-methanol mixed solution (40:20:1), which was a mobile phase, at a flow rate of 1.0 mL/minute at a constant temperature around room temperature. The measurement was performed as follows. Samples were each dissolved in tetrahydrofuran and then diluted 100-fold with the mobile phase. Each dilution was injected in a volume of 20 μL. The column eluate was detected at a wavelength of 470 nm. As a reference for quantification, astaxanthin (SIGMA, Cat. No. A9335) was used. The astaxanthin concentration of the reference solution was determined using the following equation after measuring the absorbance (A) of the reference solution at 477 nm and the area percentage % (B) of the astaxanthin peak at the time of HPLC analysis under the above conditions. Astaxanthin concentration (mg/L)=A/2150×B×100
A medium of the following composition (sucrose 30 g/L, corn steep liquor 30 g/L, potassium dihydrogenphosphate 1.5 g/L, disodium hydrogenphosphate 12-hydrate 3.8 g/L, calcium chloride dihydrate 5.0 g/L, magnesium sulfate 7-hydrate 0.7 g/L, iron sulfate 7-hydrate 0.3 g/L, pH 7.2) was dispensed in 8 ml volumes into cotton-plugged test tubes having an inner diameter of 18 mm and sterilized in an autoclave at 121° C. for 15 minutes to prepare a test tube medium for seed culture.
Next, a medium of the following composition (glucose 30 g/L, filtered corn steep liquor 5 g/L, ammonium sulfate 1.5 g/L, potassium dihydrogenphosphate 1.5 g/L, disodium hydrogenphosphate 12-hydrate 3.8 g/L, calcium chloride dihydrate 5.0 g/L, magnesium sulfate 7-hydrate 0.7 g/L, iron sulfate 7-hydrate 0.6 g/L, ester-based defoaming agent 0.2 g/L) was dispensed in 8 ml volumes into cotton-plugged test tubes having an inner diameter of 18 mm (21 tubes in total).
The mediums in these test tubes were supplemented with 20 amino acids, glycine, alanine, valine, leucine, isoleucine, serine, threonine, aspartic acid, glutamic acid, asparagine, glutamine, lysine, arginine, cysteine, methionine, phenylalanine, tyrosine, tryptophan, histidine and proline, respectively, at 1.0 g/L. One of the tubes was supplemented with no amino acid as a control. Finally, the mediums in the tubes were adjusted to pH 7.1 with aqueous sodium hydroxide or aqueous sulfuric acid and then sterilized in an autoclave at 121° C. for 20 minutes.
Paracoccus carotinifaciens strain E-396 (FERM BP-4283) was inoculated into the test tube medium for seed culture and then cultured with shaking at 28° C. for 2 days at 300 spm. The resulting culture solution was then inoculated in 0.1 ml volumes into the 21 test tube media, respectively, and cultured with shaking at 28° C. for 4 days at 300 spm.
Each culture solution was measured for its carotenoid concentration by HPLC and microbial cell growth was determined by OD610 (absorbance at 610 nm).

The subject of assay [2] is mutant Paracoccus sp. strain Y-1071. The assay can be described thus: Glutamate supplementation, 5 L fermentation tank culture, carotenoid by HPLC. It counts as cell-based. How it is done: as §1, §2
A medium of the following composition (sucrose 20 g/L, filtered corn steep liquor 5 g/L, potassium dihydrogenphosphate 0.54 g/L, dipotassium hydrogenphosphate 12-hydrate 2.78 g/L, calcium chloride dihydrate 5.0 g/L, magnesium sulfate 7-hydrate 0.7 g/L, iron sulfate 7-hydrate 3.0 g/L, fatty acid-based defoaming agent 0.2 g/L, […]) was dispensed in 100 ml volumes into 500 mL cotton-plugged Erlenmeyer flasks and sterilized in an autoclave at 121° C. for 15 minutes to prepare a flask medium for seed culture in 2 flasks,
Next, a medium of the following composition (sucrose 40 g/L, corn steep liquor 30 g/L, ammonium sulfate 0.5 g/L, potassium dihydrogenphosphate 2.25 g/L, disodium hydrogenphosphate 12-hydrate 5.7 g/L, calcium chloride dihydrate 0.1 g/L, magnesium sulfate 7-hydrate 0.5 g/L, iron sulfate 7-hydrate 5 g/L, fatty acid-based defoaming agent 0.5 g/L) was dispensed in 2.0 L volumes into 5 L fermentation tanks (2 tanks in total). One of the fermentation tanks was supplemented with monosodium L-glutamate monohydrate to 50 mmol/L, while the other was supplemented with nothing as a control. These fermentation tanks were sterilized in an autoclave at 121° C. for 30 minutes,
A loopful of the mutant Paracoccus sp, strain Y-1071 selected in Example 3 was inoculated into the flask medium for seed culture and then cultured with rotary shaking at 28° C. for 2 days at 150 rpm. The resulting culture solution was then inoculated in 80 mL volumes into the individual fermentation tanks, followed by aerobic culture at 28° C. at an aeration volume of 1 vvm for 120 hours. […] during culture, the pH was continuously controlled with 15% aqueous ammonia. Glucose was added in an amount of 30 g on day 1, day 2 and day 3 of culture to prevent glucose depletion. The minimum number of agitation rotations was set to 100 rpm, and the number of agitation rotations was varied such that the dissolved oxygen concentration in the culture solution was maintained at 2 to 3 ppm. Bubbling was detected with a bubble sensor and suppressed by automatic addition of a fatty acid-based defoaming agent.
At the completion of culture, each culture solution was measured for its carotenoid concentration by HPLC.

The mark [3] stands for this setting: culture solution, 28° C. for 4 days.
Setting [4] is: Glutamic acid concentration 50 mmol/L, 120 hours.

Take `N[C@@H](CCC(=O)O)C(=O)O` [Glutamic acid, glutamic acid]: the “effect on the production of carotenoid pigments” value in assay [1] (versus tube with no amino acid) was “stimulatory effect”. In assay [1] (setting [3]), this compound had an Astaxanthin of 10.7 mg/L and a Total carotenoid of 28.2 mg/L. For the same compound, in assay [1] (microbial cell growth, absorbance at 610 nm, 28° C. for 4 days), the OD610 was 17. The “produced carotenoid concentration compared to the sample without glutamic acid” value in assay [2] (50 mmol/L) is “higher produced carotenoid concentration”. In assay [2] (setting [4]), the 3-Hydroxyechinenone stood at 10 mg/L, the Adonixanthin is on record as 158 mg/L, the Astaxanthin is given as 805 mg/L and the Asteroidenone came out at 9 mg/L. In addition, in assay [2] (setting [4]), the Canthaxanthin stood at 101 mg/L, the Echinenone worked out at 62 mg/L, the Phoenicoxanthin was found to be 217 mg/L and the “Total carotenoid” value is reported as 1458 mg/L. Also, in assay [2] (setting [4]), the Zeaxanthin was found to be 3 mg/L, the β-Carotene is 93 mg/L and the β-Cryptoxanthin is 0.5 mg/L.
